Laboratory results: patent US9012487B2, “Bicyclo-pyrazoles active as kinase inhibitors” (Nerviano Medical Sciences S.r.l., priority 2006, dated 2015)
Where a name gives a salt, the structure may show the parent alone.

Columns and labels:
IGF1R = biological target: T1, IGF1R (Homo sapiens, UniProt P08069); experiment: Western blot analysis of receptor phosphorylation following stimulation with IGF-1 in MCF-7 human breast cancer cells; type: cell-based; settings: MCF-7 starved cells stimulated with 10 nM IGF1; increasing concentrations of compound; Western blot band of pIGF1R (FIG. 2)
T1 construct: endogenous in cells; host or cells: MCF-7 (ATCC #HTB-22)
T1 sequence (P08069 31-1367): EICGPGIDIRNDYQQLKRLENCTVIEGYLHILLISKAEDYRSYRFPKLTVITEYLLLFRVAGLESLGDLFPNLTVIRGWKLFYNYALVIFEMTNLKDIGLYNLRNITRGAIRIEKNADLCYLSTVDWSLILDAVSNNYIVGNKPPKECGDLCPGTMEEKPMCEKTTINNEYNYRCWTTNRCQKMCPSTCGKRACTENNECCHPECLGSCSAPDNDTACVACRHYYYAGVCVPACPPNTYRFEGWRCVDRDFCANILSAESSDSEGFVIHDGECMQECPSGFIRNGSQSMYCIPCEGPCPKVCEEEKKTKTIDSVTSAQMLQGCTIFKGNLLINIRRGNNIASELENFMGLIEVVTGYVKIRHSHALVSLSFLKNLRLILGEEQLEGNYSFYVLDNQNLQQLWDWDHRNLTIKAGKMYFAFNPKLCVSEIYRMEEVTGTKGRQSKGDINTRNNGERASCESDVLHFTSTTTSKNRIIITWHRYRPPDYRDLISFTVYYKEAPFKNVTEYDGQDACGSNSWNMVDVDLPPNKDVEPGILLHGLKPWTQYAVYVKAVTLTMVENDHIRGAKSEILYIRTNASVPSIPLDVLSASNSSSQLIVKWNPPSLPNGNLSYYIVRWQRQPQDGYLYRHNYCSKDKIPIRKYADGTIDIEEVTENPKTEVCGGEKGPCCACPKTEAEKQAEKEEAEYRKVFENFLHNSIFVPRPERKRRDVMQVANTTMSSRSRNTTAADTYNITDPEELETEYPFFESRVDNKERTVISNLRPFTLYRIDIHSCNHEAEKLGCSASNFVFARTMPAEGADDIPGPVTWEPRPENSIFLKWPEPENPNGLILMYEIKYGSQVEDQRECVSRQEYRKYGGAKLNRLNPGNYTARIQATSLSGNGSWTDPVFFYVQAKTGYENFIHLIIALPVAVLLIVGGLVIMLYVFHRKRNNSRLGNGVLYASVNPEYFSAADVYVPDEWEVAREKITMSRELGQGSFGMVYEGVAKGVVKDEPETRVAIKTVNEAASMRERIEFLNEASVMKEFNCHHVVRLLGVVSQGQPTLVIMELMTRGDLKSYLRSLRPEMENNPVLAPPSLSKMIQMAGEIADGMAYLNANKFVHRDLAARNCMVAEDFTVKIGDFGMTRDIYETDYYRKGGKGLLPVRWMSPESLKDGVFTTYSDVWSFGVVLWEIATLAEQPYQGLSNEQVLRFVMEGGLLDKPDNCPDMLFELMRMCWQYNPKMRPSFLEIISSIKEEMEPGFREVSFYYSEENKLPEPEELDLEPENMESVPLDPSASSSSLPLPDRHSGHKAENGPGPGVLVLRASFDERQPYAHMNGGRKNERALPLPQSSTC
Description: Treatment of starved MCF-7 cells with 10 nM IGF1 induced receptor auto-phosphorylation as shown by the appearance of a more intense band of phosphorylated IGF1R (pIGF1R).
Western Blot Analysis of Receptor Phosphorylation Following Stimulation with IGF-1 in MCF-7 Human Breast Cancer Cells
MCF-7 cells (ATCC #HTB-22) were seeded in 12-well tissue culture plates at 2×10^5 cells/well in E-MEM medium (MEM+Earle's BSS+2 mM glutamine+0.1 mM non-essential amino acids)+10% FCS, and incubated overnight at 37° C., 5% CO2, 100% relative humidity. Cells were then starved by replacing E-MEM+10% FCS with E-MEM+0.1% BSA, and incubating overnight. After this incubation, wells were treated with desired concentrations of compound for 1 hour at 37° C., and were then stimulated with 10 nM recombinant human IGF-1 (Invitrogen, Carlsbad, Calif., USA) for 10 minutes at 37° C. Cells were then washed with PBS and lysed in 100 microL/well cell lysis buffer (M-PER Mammalian Protein Extraction Reagent [Product #78501, Pierce, Rockford, Ill., USA]+10 mM EDTA+Protease inhibitor cocktail [Sigma-Aldrich product #P8340]+phosphatase inhibitor cocktail [Sigma-Aldrich products #P2850+#P5726]). […]

[1] = tested on: IGF-1 induced S6 ribosomal protein phosphorylation; experiment: Growth factor induced S6 ribosomal protein phosphorylation in primary human fibroblasts (NHDF); type: cell-based; settings: normal human dermal fibroblasts (NHDF), stimulated with 10 nM IGF-1; read-out: Inhibition of IGF1R-induced S6 phosphorytation IC50
Description: Growth Factor Induced S6 Ribosomal Protein Phosphorylation in Primary Human Fibroblasts. Phosphorylation of S6 ribosomal protein in response to growth factor stimulation of normal human dermal fibroblasts (NHDF) was used to assess compound potency in inhibiting IGF-1 induced signal transduction in cells, and selectivity towards EGF and PDGF stimulus. NHDF cells obtained from PromoCell (Heidelberg, Germany), were maintained at 37° C. in a humidified atmosphere with 5% CO2 in complete Fibroblast Growth Medium (PromoCell). For assay, NHDF were seeded in 384-well tissue culture plates (clear- and flat-bottomed black plates; Matrix Technologies Inc., Hudson, N.H., USA) at a density of 5000 cells/well in serum-free medium containing 0.1% bovine serum albumin (BSA) and incubated for 5 days. […] Fluorescence images in the DAPI and Cy5™ channels were automatically acquired, stored and analysed using a Cellomics ArrayScan™ IV instrument (Cellomics, Pittsburgh, USA); the Cellomics Cytotoxicity Algorithm was used to quantify cytoplasmic fluorescence associated with phospho-S6 (Cy5™ signal parameter: “Mean Lyso Mass-pH”) for each cell in 10 fields/well, and eventually expressed as a mean population value. […]

IGF-1R = biological target: T2, IGF-1R (Homo sapiens, UniProt P08069, M1123C/Y1125N); experiment: Inhibition assay for IGF-1R kinase activity (Scintillation Proximity Assay); settings: read-out: IGF1R IC50 (μM) Biochemical assay
T2 construct: made in house; host or cells: baculovirus; virus made in Sf21, protein expressed in H5 insect cells
T2 sequence (P08069 with tags, fused parts or gaps M1123C/Y1125N): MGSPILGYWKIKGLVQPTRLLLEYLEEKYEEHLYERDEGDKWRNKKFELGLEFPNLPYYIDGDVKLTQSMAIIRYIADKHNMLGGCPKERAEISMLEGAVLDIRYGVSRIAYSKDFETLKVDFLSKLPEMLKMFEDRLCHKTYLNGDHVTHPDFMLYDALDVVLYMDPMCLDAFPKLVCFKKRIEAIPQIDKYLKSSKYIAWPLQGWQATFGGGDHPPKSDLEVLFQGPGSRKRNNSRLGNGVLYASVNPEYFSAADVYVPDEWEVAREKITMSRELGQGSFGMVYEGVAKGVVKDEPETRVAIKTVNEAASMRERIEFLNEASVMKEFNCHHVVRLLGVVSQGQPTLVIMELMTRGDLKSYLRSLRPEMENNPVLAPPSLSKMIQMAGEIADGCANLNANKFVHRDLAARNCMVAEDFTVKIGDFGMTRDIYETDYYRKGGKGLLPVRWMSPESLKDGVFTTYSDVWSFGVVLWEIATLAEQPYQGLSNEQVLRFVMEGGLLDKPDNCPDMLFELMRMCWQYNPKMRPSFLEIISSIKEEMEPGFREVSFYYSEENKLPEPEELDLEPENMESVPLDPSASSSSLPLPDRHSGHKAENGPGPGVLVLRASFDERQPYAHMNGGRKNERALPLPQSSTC
Description: Human cDNA was used as template for amplification by polymerase chain reaction (PCR) of the whole cytoplasmic portion of IGF-1R (amino acid residues 960-1367), which includes the entire kinase domain. PCR was conducted using the forward primer sequence 5′-[…]-3′ (SEQ ID NO: 1) and the reverse primer sequence 5′-[…]-3′ (SEQ ID NO: 2). In order to facilitate subsequent cloning steps, both primers comprise a BamHI restriction endonuclease site sequence. The PCR product was cloned into a transfer vector for the baculovirus expression system, pVL1393 (Pharmingen), modified to include the sequence encoding the Glutathione S-transferase (GST) fusion protein and a PreScission cleavage site upstream of the inserted gene of interest. The GST-IGF-1R coding region corresponds to nucleic acid residues of 4168-6084. The final protein encoded by the open reading frame corresponds to a fusion protein of 639 amino acids, shown in SEQ ID NO: 3 (FIG. 1). […]
The inhibitory activity of putative kinase inhibitors and the potency of selected compounds was determined using a Scintillation Proximity Assay (SPA) in 96 well microtiter plate format. […] When a radioactively labeled phosphate moiety is transferred by the kinase to the biotinylated peptide, this stimulates light emission by the bead, which is measured in a scintillation counter. […]

IC50 (IGF-1R) [µM]	Compound	inhibition of IGF1R auto-phosphorylation (IGF1R)	IC50 [1] [µM]
–	CN1CCN(c2ccc(C(=O)Nc3n[nH]c4c3CN(S(=O)(=O)c3cc(F)cc(F)c3)C4(C)C)c(F)c2)CC1 [Example 49, N-[5-(3,5-Difluoro-benzenesulfonyl)-6,6-dimethyl-1,4,5,6-tetrahydro-pyrrolo[3,4-c]pyrazol-3-yl]-2-fluoro-4-(4-methyl-piperazin-1-yl)-benzamide]	inhibition of IGF1-induced IGF1R auto-phosphorylation	–
–	CN1CCN(c2ccc(C(=O)Nc3n[nH]c4c3CN(S(=O)(=O)c3cc(F)cc(F)c3)C4(C)C)cc2)CC1 [Example 43, N-[5-(3,5-difluoro-benzenesulfonyl)-6,6-dimethyl-1,4,5,6-tetrahydro-pyrrolo[3,4-c]pyrazol-3-yl]-4-(4-methyl-piperazin-1-yl)-benzamide]	inhibition of IGF1-induced IGF1R auto-phosphorylation	–
0.34	CCOC(=O)n1nc(NC(=O)c2ccc(N3CCN(C)CC3)c(N(C)CCOC)c2)c2c1CNC2 [Example 24, 3-[3-[(2-Methoxy-ethyl)-methyl-amino]-4-(4-methyl-piperazin-1-yl)-benzoylamino]-5,6-dihydro-4H-pyrrolo[3,4-c]pyrazole-1-carboxylic acid ethyl ester hydrochloride]	–	3.05
